Assay results reported in publication PMC10150366, “Discovery of an In Vivo Chemical Probe for BCL6 Inhibition by Optimization of Tricyclic Quinolinones” (Journal of Medicinal Chemistry, 2023).
Values joined by “and” are separate entries in the source; they are usually repeats but may differ in a detail not shown here. Equal values may be shown once. Read-outs that look alike come from different tables or passages of the source.

Legend:
VEGFR2 = VEGFR2 (Homo sapiens, UniProt P35968); assay: SAFETYscan Kinases Binding VEGFR2 Inhibitor
Excerpt: (§1) Supplement jm3c00155_si_002.xlsx, sheet "SAFETYScan" | column: RC50 (uM); Max Response

nAChR(a4/b2) = nAChR(a4/b2) (Homo sapiens, UniProt P17787+P43681); assay: SAFETYscan Ion Channel nAChR(a4/b2) Blocker; type: cell-based
Sequence of nAChR(a4/b2) (P43681 29-627 limits assumed): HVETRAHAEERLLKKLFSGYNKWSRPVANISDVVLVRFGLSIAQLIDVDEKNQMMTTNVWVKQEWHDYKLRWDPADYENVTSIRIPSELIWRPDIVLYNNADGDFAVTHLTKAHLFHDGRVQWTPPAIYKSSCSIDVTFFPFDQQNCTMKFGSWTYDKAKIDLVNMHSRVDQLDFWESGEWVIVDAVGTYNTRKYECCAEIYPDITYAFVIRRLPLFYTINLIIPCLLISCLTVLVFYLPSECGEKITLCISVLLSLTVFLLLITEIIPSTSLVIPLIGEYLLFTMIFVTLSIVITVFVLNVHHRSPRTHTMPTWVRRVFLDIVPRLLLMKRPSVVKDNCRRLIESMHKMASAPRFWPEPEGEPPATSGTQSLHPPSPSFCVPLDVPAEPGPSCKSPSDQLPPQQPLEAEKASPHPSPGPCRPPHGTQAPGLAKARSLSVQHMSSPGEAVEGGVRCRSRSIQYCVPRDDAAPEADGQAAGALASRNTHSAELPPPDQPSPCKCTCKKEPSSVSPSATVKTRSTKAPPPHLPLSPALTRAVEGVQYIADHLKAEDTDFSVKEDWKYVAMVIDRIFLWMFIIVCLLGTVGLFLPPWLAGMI
Sequence of nAChR(a4/b2) (P17787 26-502): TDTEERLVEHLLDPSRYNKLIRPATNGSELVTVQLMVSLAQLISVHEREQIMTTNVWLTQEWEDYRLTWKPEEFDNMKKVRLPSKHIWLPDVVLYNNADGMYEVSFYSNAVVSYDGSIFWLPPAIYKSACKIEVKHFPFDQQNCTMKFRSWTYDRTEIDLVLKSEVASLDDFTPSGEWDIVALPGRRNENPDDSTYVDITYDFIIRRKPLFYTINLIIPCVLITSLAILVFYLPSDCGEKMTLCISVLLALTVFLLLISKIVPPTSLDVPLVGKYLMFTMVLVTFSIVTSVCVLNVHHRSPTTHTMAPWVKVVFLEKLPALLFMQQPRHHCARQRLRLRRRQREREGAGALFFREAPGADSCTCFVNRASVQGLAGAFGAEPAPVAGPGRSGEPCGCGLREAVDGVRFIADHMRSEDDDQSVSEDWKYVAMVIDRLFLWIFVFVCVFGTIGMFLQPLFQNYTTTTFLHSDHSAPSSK
Excerpt: as §1

CNR2 [1] = biological target: T1, CNR2 (Homo sapiens, UniProt P34972); assay: SAFETYscan cAMP CNR2 Agonist; type: cell-based
T1 sequence (P34972 whole entry): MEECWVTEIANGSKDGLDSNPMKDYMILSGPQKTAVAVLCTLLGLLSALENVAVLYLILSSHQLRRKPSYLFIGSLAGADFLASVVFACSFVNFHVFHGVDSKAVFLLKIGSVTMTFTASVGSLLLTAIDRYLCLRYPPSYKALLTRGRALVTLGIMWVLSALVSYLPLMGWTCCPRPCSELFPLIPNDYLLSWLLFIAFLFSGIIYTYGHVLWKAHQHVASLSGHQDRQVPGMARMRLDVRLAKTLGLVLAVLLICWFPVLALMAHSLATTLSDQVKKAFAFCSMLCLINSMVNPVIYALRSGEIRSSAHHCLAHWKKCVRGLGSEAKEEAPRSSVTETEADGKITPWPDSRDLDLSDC
Excerpt: (§2) Supplement jm3c00155_si_002.xlsx, sheet "SAFETYScan" | column: RC50 (uM); Hill; Max Response

CNR2 [2] = biological target: T1, CNR2; assay: SAFETYscan cAMP CNR2 Antagonist; type: cell-based
Excerpt: as §1

DRD2S = DRD2S (Homo sapiens, UniProt P14416); assay: SAFETYscan cAMP DRD2S Agonist; type: cell-based
Sequence of DRD2S (P14416 1-414 isoform P14416-2): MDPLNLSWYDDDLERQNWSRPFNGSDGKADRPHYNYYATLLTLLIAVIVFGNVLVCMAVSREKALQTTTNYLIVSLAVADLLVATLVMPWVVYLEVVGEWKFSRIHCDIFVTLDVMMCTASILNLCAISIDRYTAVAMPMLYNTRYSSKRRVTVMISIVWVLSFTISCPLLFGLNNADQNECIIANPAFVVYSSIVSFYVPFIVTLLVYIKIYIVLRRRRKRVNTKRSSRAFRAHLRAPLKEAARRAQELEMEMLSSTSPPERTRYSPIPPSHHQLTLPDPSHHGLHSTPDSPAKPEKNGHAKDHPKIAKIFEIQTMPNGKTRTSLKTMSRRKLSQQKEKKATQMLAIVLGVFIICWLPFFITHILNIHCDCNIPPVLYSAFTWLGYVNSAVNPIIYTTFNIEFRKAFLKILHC
Excerpt: as §2

NMDAR (1A/2B) = NMDAR (1A/2B) (Homo sapiens, UniProt Q05586+Q13224); assay: SAFETYscan Ion Channel NMDAR (1A/2B) Opener; type: cell-based
Excerpt: as §1

ADRA2A = biological target: T2, ADRA2A (Homo sapiens, UniProt P08913); assay: SAFETYscan cAMP ADRA2A Agonist; type: cell-based
T2 sequence (P08913 1-465): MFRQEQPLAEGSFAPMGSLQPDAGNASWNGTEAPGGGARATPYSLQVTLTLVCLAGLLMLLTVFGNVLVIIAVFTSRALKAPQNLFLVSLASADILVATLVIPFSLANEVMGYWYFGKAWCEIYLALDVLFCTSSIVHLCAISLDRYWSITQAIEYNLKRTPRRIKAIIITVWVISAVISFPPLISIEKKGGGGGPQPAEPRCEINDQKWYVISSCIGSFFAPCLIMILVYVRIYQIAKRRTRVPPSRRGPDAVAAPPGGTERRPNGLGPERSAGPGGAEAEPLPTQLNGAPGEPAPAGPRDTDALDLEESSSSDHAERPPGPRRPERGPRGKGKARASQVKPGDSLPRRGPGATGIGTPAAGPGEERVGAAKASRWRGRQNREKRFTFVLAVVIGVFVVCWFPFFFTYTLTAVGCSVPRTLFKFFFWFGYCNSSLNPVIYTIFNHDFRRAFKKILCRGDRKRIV
Excerpt: as §1

MAOA = MAOA (Homo sapiens, UniProt P21397); assay: SAFETYscan Enzymatic MAOA Inhibitor; type: biochemical
Excerpt: as §1

GABAA = GABAA (Homo sapiens, UniProt P14867+P18507+P47870); assay: SAFETYscan Ion Channel GABAA Opener; type: cell-based
Sequence of GABAA (P14867 28-456): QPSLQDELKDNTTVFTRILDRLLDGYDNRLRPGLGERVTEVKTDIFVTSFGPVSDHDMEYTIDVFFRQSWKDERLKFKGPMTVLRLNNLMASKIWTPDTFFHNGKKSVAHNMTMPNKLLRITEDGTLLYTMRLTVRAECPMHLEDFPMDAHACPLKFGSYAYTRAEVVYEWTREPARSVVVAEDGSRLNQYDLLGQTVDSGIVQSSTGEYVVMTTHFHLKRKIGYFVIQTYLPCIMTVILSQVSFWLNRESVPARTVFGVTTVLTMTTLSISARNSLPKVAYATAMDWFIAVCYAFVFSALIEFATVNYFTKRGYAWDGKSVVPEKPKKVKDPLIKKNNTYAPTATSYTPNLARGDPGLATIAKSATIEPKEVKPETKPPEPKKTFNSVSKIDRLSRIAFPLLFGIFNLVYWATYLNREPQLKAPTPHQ
Sequence of GABAA (P47870 26-512): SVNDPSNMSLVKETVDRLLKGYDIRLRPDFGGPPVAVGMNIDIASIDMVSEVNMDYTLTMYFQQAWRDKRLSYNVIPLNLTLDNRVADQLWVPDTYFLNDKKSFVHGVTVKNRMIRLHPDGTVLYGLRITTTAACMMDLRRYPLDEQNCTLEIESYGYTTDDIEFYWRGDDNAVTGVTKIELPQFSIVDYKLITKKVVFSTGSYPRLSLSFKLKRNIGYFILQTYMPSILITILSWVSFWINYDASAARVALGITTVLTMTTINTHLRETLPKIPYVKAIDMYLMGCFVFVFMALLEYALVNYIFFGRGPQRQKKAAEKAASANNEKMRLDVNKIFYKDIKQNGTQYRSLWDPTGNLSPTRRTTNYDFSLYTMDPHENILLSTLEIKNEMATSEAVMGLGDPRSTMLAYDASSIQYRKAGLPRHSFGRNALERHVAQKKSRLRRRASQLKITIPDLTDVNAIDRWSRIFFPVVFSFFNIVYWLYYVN
Sequence of GABAA (P18507 40-475): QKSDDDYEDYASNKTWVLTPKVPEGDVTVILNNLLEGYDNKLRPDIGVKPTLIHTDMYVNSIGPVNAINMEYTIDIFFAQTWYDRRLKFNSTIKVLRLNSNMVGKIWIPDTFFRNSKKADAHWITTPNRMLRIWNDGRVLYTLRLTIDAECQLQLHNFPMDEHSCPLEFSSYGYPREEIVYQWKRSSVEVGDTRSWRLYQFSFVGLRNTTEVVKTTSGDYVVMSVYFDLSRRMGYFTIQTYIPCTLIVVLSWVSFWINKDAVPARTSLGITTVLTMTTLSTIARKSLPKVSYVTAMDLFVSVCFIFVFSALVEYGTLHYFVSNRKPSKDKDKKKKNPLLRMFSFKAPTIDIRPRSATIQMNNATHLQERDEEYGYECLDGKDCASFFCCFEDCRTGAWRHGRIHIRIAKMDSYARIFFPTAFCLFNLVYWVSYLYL
Excerpt: as §1

PDE4D2 = PDE4D2 (Homo sapiens, UniProt Q08499); assay: SAFETYscan Enzymatic PDE4D2 Inhibitor; type: biochemical
Excerpt: as §1

ADRB2 = ADRB2 (Homo sapiens, UniProt P07550); assay: SAFETYscan cAMP ADRB2 Antagonist; type: cell-based
Sequence of ADRB2 (P07550 whole entry): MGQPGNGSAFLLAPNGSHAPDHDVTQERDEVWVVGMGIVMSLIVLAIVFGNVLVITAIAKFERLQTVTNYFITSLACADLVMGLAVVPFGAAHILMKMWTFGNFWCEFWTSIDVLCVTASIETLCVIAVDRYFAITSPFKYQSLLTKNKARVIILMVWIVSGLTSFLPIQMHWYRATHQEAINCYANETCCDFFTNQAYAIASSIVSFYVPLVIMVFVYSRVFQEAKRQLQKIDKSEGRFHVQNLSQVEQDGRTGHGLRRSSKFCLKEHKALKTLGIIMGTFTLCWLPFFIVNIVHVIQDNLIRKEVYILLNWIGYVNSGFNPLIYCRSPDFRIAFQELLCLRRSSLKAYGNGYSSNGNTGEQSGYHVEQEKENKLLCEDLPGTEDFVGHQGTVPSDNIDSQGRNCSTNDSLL
Excerpt: as §2

LCK = LCK (Homo sapiens, UniProt P06239); assay: SAFETYscan Kinases Binding LCK Inhibitor
Excerpt: as §1

CNR1 [3] = biological target: T3, CNR1 (Homo sapiens, UniProt P21554); assay: SAFETYscan cAMP CNR1 Agonist; type: cell-based
T3 sequence (P21554 whole entry): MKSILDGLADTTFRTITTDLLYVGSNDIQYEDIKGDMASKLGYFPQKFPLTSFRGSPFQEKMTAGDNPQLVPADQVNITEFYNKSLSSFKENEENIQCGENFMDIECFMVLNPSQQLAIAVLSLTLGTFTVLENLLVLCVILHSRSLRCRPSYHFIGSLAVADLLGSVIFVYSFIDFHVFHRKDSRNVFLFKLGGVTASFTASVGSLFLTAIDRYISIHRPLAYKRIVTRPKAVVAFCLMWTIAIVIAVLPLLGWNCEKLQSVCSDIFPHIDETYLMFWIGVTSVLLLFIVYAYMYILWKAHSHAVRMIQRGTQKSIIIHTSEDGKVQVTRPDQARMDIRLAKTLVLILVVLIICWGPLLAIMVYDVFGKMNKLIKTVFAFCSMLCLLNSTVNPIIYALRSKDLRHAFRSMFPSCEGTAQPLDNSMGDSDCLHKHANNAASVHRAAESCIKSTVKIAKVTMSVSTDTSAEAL
Excerpt: as §1

[4] = biological target: T4, BCL6-SMRT (NCOR2) corepressor protein-protein interaction (Homo sapiens, UniProt P41182); assay: NanoBRET cellular assay (HEK293T); type: cell-based
T4 construct: DNA encoding full length BCL6 and SMRT; expressed in transfected cells; host or cells: HEK293T
Description: Test compounds in DMSO or DMSO alone
concentration in 0.7% v/v DMSO final.
(also called NCOR2) corepressor protein-protein interaction. DNA encoding full length BCL6 and SMRT
fusion proteins BCL6-nanoLuc and SMRT-HaloTag, respectively. HEK293T cells were plated […] in T75
At the time of assay, compounds
dispensing (Labcyte Inc.). Frozen transfected HEK293T cells were thawed, centrifuged and freezing
DMSO final concentration.
After a short centrifugation the
(1st emission filter) / 450-80 nm (2nd emission filter). The % inhibition at each test concentration was
sigmoidal four-parameter logistic fit equation. […]

CNR1 [5] = biological target: T3, CNR1; assay: SAFETYscan cAMP CNR1 Antagonist; type: cell-based
Excerpt: as §1

DRD1 = DRD1 (Homo sapiens, UniProt P21728); assay: SAFETYscan cAMP DRD1 Agonist; type: cell-based
Excerpt: as §1

SERT = SERT (Homo sapiens, UniProt P31645); assay: SAFETYscan Transporter SERT Blocker; type: cell-based
Excerpt: as §1

COX1 = COX1 (Homo sapiens, UniProt P23219); assay: SAFETYscan Enzymatic COX1 Inhibitor; type: biochemical
Sequence of COX1 (P23219 24-599): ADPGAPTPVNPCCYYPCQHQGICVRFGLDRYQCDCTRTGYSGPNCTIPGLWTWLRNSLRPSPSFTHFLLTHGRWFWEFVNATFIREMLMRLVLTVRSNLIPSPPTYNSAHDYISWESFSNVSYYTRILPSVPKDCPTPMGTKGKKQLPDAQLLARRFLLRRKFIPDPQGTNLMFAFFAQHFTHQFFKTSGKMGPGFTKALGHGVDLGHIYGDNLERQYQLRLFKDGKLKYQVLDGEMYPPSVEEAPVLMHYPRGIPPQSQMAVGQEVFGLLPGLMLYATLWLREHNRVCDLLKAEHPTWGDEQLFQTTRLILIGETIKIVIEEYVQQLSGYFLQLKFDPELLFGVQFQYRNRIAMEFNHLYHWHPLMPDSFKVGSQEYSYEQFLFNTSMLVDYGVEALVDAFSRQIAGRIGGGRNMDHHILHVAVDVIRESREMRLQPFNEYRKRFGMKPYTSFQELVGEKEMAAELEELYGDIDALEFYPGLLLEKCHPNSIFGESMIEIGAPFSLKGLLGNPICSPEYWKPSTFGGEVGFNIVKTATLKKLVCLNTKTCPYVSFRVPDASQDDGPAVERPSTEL
Excerpt: as §2

CHRM3 = CHRM3 (Homo sapiens, UniProt P20309); assay: SAFETYscan Calcium Flux CHRM3 Antagonist; type: cell-based
Excerpt: as §1

Cn1c(=O)c2c(c3cc(Nc4ccnc(F)c4Cl)ccc31)N[C@@H](C1CC1)C(F)(F)CO2 [compound 17, (S)-10-((3-chloro-2-fluoropyridin-4-yl)amino)-2-cyclopropyl-3,3-difluoro-7-methyl-1,2,3,4-tetrahydro-[1,4]oxazepino[2,3-c]quinolin-6(7H)-one]
Emax (VEGFR2; read-out: Max Response): 0%
IC50 (VEGFR2; read-out: RC50 (IC50)): > 10 µM
IC50 (nAChR(a4/b2)): > 10 µM
Emax (nAChR(a4/b2); nAChR(a4/b2), Ion Channel, Blocker, read-out: Max Response): 0%
EC50 (CNR2 [1]): 1.4 µM
Hill (CNR2 [1]; CNR2, cAMP, Agonist): 0.61
Emax (CNR2 [1]; CNR2, cAMP, Agonist, read-out: Max Response): 77.7%
IC50 (CNR2 [2]): > 10 µM
Emax (CNR2 [2]; CNR2, cAMP, Antagonist, read-out: Max Response): 0%
EC50 (DRD2S): 3.5 µM
Hill (DRD2S; DRD2S, cAMP, Agonist): 1.25
Emax (DRD2S; DRD2S, cAMP, Agonist, read-out: Max Response): 72.1%
EC50 (NMDAR (1A/2B)): > 10 µM
Emax (NMDAR (1A/2B); NMDAR (1A/2B), Ion Channel, Opener, read-out: Max Response): 0.2%
EC50 (ADRA2A): > 10 µM
Emax (ADRA2A; ADRA2A, cAMP, Agonist, read-out: Max Response): 38.9%
Emax (MAOA; read-out: Max Response): 0%
IC50 (MAOA; read-out: RC50 (IC50)): > 10 µM
EC50 (GABAA): > 10 µM
Emax (GABAA; GABAA, Ion Channel, Opener, read-out: Max Response): 1.24%
Emax (PDE4D2; read-out: Max Response): 15%
IC50 (PDE4D2; read-out: RC50 (IC50)): > 10 µM
Hill (ADRB2): 1.29
Emax (ADRB2; read-out: Max Response): 89%
IC50 (ADRB2; read-out: RC50 (IC50)): 1.77 µM
Emax (LCK; read-out: Max Response): 0.08%
IC50 (LCK; read-out: RC50 (IC50)): > 10 µM
EC50 (CNR1 [3]): > 10 µM
Emax (CNR1 [3]; CNR1, cAMP, Agonist, read-out: Max Response): 27.3%
IC90 ([4]; HEK-293T, Table S2, read-out: BCL6 NanoBRET IC90 individual replicates): 0.141 µM
calculated free (unbound) cellular IC90 ([4]; HEK-293T, calculated free cellular IC90 from NanoBRET assay): 0.048 µM
IC90 ([4]; HEK-293T, geometric mean of at least three replicates, read-out: NanoBRET IC90): 0.14 µM
BCL6 NanoBRET pIC50 mean ([4]; Table S2): 7.6643
IC50 ([4]; geometric mean of at least three replicates, read-out: NanoBRET IC50): 0.022 µM
IC50 ([4]; single replicates, Table S2, listed as CCT374705, 17, read-out: BCL6 NanoBRET IC50 individual replicates): 0.0218 µM and 0.0222 µM
IC50 ([4]; single replicates, Table S2, read-out: BCL6 NanoBRET IC50 individual replicates): 0.0251 µM and 0.0173 µM and 0.0243 µM and 0.0184 µM and 0.0209 µM and 0.0242 µM and 0.0771 µM and 0.0156 µM and 0.0111 µM and 0.0154 µM and 0.0407 µM and 0.0253 µM and 0.0232 µM and 0.013 µM and 0.0326 µM and 0.0295 µM and 0.0101 µM and 0.0121 µM and 0.0442 µM and 0.0197 µM and 0.0146 µM and 0.0252 µM
IC50 ([4]; supplement, read-out: BCL6 NanoBRET IC50 Geometric Mean): 0.0217 µM
IC50 (CNR1 [5]): > 10 µM
Emax (CNR1 [5]; CNR1, cAMP, Antagonist, read-out: Max Response): 0%
EC50 (DRD1): > 10 µM
Emax (DRD1; DRD1, cAMP, Agonist, read-out: Max Response): 0%
IC50 (SERT): > 10 µM
Emax (SERT; SERT, Transporter, Blocker, read-out: Max Response): 0%
Hill (COX1): 3.28
Emax (COX1; read-out: Max Response): 93.1%
IC50 (COX1; read-out: RC50 (IC50)): 4.54 µM
IC50 (CHRM3): > 10 µM
Emax (CHRM3; CHRM3, Calcium Flux, Antagonist, read-out: Max Response): 1.21%
